Laboratory results taken from article PMC4960700, “In vivo and in vitro inhibition of rat liver glutathione transferases activity by extracts from Combretum zeyheri (Combretaceae) and Parinari curatellifolia (Chrysobalanaceae)” (BMC Complementary and Alternative Medicine, 2016).
Converted amounts (≈) assume the structure as drawn. “And” between values parts separate entries of the source, which are not always exact repeats. Equal values may be shown once.

Legend:
rat liver GSTs = assay: In vitro GST enzyme assay (CDNB/GSH) with liver cytosolic fractions of control rats; assay type: biochemical, male Sprague–Dawley rats; settings: CDNB substrate
Method: (§1) Throughout the procedure tissue fractions were kept cold (0–4 °C) by using pre-cooled homogenization medium (50 mM Tris–HCl containing 0.154 M KCl) and keeping centrifuge rotors, tissue homogenizer, measuring cylinders, beakers and centrifuge tubes in ice. Excess blood was removed from the liver by perfusing the livers with ice cold normal saline using a Pharmacia LKB pump P-1 (Pharmacia, Uppsala, Sweden) at a flow rate of 50 ml/h through the still beating heart then gently blotting with dry tissue paper. Perfusion was performed in situ to remove blood. The livers and kidneys were removed and blotted dry. The liver or kidney samples were, weighed, wet mass recorded and livers quickly transferred to a homogenizing vessel, which was kept, on ice. Homogenizing medium 50 mM Tris–HCl pH 7.4 containing 154 mM KCl was added to each sample (5 ml/g of liver). The liver or kidney samples were cut into suitable pieces and homogenized with a motor driven Potter-Elvehjem homogenizer type R2R (Heidolph Elektro KG., Kelheim, Germany). […] The final volume was recorded and “parafilm ^TM” (Sigma-Aldrich Co., Steinheim, Germany) was added to cover. […] Protein content in the liver and kidney cytosolic fractions was determined using the Lowry method. The total GST activity in cell supernatants was measured spectrophotometrically using final concentrations of 1 mM 1-chloro-2,4-dinitrobenzene (CDNB) and 1 mM glutathione, as substrates in 0.1 M potassium phosphate buffer pH 6.5, and GST (0.125 mg/ml protein). Cytosolic glutathione transferases activities were assessed using 0.5 mg/ml and 2 mg/ml enzyme dilutions for the liver and kidney samples respectively. […] GST mediated conjugation of 1-chloro-2, 4- dinitrobenzene (CDNB) to glutathione (GSH) was measured using 96-well microtitre plates in a microplate reader (Biokinetics reader EL 340 microplate, Highland Park, 998, Winsooki, VT, USA). […] After addition of CDNB, the plate was transferred to the microplate reader. The plate was read at 5-min intervals for a total of 15 min.

kidney GSTs = assay: In vitro GST enzyme assay (CDNB/GSH) with kidney cytosolic fractions of control rats; assay type: biochemical, male Sprague–Dawley rats; settings: CDNB substrate
Method: as §1

## C=C(CC)C(=O)c1ccc(OCC(=O)O)c(Cl)c1Cl [ETA, ethacrynic acid]
Rat liver GSTs; liver cytosol from corn oil-treated control group, P. curatellifolia experiments
  IC50: 10 µg/mL (≈ 33 µM)
Rat liver GSTs; liver cytosol from normal saline treated control group, P. curatellifolia experiments
  IC50: 5.8 µg/mL and 6 µg/mL
Rat liver GSTs; liver cytosol from saline-treated control group, C. zeyheri experiments
  IC50: 5.4 µg/mL (≈ 17.8 µM)
Kidney GSTs; kidney cytosol from corn oil-treated control group, P. curatellifolia experiments
  IC50: 3.7 µg/mL (≈ 12.2 µM)
Kidney GSTs; kidney cytosol from normal saline treated control group, P. curatellifolia experiments
  IC50: 7.36 µg/mL and 7.4 µg/mL
Kidney GSTs; kidney cytosol from saline-treated control group, C. zeyheri experiments
  IC50: 10 µg/mL (≈ 33 µM)
